Data: patent US11242344B2, “(4-hydroxypyrrolidin-2-yl)-heterocyclic compounds and methods of use thereof” (Genentech, Inc., priority 2017, dated 2022)

Legend:
VHL Elongin B/C complex = VHL Elongin B/C complex (Homo sapiens (Human), UniProt P40337); assay: Fluorescence Polarization (FP) VHL Binding Assay; settings: for IC50: VHL binding, FP assay, geometric mean where more than one measurement
Description: The binding of test compounds to the VHL Elongin B/C complex was measured using a fluorescence polarization tracer competition assay. The VHL/Elongin B/C protein complex used in the assay was generated as follows. The coding region for amino acids E55-D213 of human VHL with N-terminal His6 tag with a TEV-protease cleavage site was co-expressed with Elongin B (residues M1-Q118) and Elongin C (Residues M17-C112) in E. coli. […] The purified VHL/Elongin B/C complex was dialyzed into formulation buffer: 20 mM Bis-Tris pH7.0, 150 mM NaCl, 1 mM DTT. A VHL fluorescence polarization probe (prepared in Example 91), consisted of a VHL ligand coupled to carboxytetramethylrhodamine (TAMRA); […] Compounds were prepared as a serial dilution in DMSO at a concentration 25-fold higher than the final desired concentration and acoustically dispensed (400 nl) into a ProxiPlate-384 Plus F, Black 384-shallow well Microplate (Part Number 6008260). DMSO was dispensed into wells designated for “VHL control” (without compound) wells. The “Assay Buffer” consisted of 50 mM Tris pH 8.0, 120 mM NaCl, 0.005% Nonidet P-40, and 1% DMSO (v/v). Assay Buffer containing […] VHL Elongin B/C complex was prepared and 5 μl dispensed using a BioRapTR (Beckman Coulter) into each well of the assay plate. Assay Buffer was also dispensed into “no VHL control” wells using the same method. A “pre-assay” fluorescence measurement was made using an Infinite® M1000 (Tecan) plate reader (Excitation 530 nm, Emission 574 nm, Bandwidth 10 nm). Assay Buffer containing 3.34 nM of the VHL FP probe was prepared in Assay Buffer and 5 μl dispensed into each well of the assay plate using a BioRapTR (Beckman Coulter). The final VHL/Elongin B/C protein concentration is 2.64 nM and the final probe concentration is 1.67 nM. Assay plates were briefly centrifuged and incubated for 1 hour at room temperature. “Post-assay” fluorescence polarization measurements were made as described for the “pre-assay” fluorescence measurement. Fluorescence polarization was calculated for each sample; taking into account the “pre-assay” fluorescence measurements and subtracting the fluorescence signal of the compound/VHL only (“pre-assay”) measurements from the “post-assay” fluorescence polarization measurements, for each plane of polarization. The data were analyzed using Genedata Screener software and normalized to the “no VHL control” and “VHL control” (without compound). IC50 values were calculated using a four parameter curve fit (Robust method).

[1] = target: VHL co-expressed with Elongins B and C (Homo sapiens (Human), UniProt P40337); assay: Surface Plasmon Resonance Assay; format: binding; settings: SPR measured VHL affinity; geometric mean where more than one measurement
Sequence of VHL co-expressed with Elongins B and C (P40337 whole entry, looked up): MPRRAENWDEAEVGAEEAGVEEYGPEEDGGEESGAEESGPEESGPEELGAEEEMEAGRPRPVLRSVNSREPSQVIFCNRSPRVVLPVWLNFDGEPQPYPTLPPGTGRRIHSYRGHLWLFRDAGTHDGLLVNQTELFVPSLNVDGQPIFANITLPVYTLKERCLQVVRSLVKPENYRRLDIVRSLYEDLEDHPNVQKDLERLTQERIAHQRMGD
Sequence of VHL co-expressed with Elongins B and C (Q15370 whole entry partner, looked up): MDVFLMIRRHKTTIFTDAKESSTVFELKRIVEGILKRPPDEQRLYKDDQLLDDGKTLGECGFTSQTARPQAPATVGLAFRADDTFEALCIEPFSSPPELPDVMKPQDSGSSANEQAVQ
Sequence of VHL co-expressed with Elongins B and C (Q15369 whole entry partner, looked up): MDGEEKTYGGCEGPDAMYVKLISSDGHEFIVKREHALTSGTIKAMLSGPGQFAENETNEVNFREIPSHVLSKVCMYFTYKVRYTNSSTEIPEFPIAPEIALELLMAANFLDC
Description: Using a Biacore T200, […] tagged VHL co-expressed with Elongins B and C were immobilized to a Biacore SA chip in running buffer without DMSO. Compounds were tested individually at varying concentrations in running buffer (50 mM HEPES pH 7.2, 150 mM NaCl, 0.5 mM TCEP, 0.001% Tween 20, 0.2% PEG3350, 2% DMSO) at 20° C. Sensorgrams were run in order from low to high concentration using a flow rate of 80 μL/min. Association and disassociation times were varied depending on the estimated potency of the compound tested. […] Galdeano et al, J. Med. Chem. 2014, 57, 8657-8663, herein incorporated by reference) which retained greater than 75% of the activity over the course of the run. Analysis of the binding curves and determination of the kinetic parameters were done using evaluation software (Version 2.0, Biacore).

Sequence of VHL Elongin B/C complex (P40337 whole entry, looked up, the tested form may be a part): as the sequence (P40337 whole entry, looked up) above
Sequence of VHL Elongin B/C complex (Q15370 whole entry partner, looked up, the tested form may be a part): as the sequence (Q15370 whole entry partner, looked up) above
Sequence of VHL Elongin B/C complex (Q15369 whole entry partner, looked up, the tested form may be a part): as the sequence (Q15369 whole entry partner, looked up) above

SMILES	IC50 (VHL Elongin B/C complex)	Kd [1]	Kd (VHL Elongin B/C complex; probe binding to VHL/Elongin B/C)
CC(=O)N[C@H](C(=O)N1C[C@H](O)CC1C1=NC(=O)C(C)(c2ccc(Br)cc2)N1)C(C)(C)C (single isomer, unassigned) [Example 101.1]	> 200 µM	> 500 µM	–
CC(=O)N[C@H](C(=O)N1C[C@H](O)CC1C1=NC(=O)C(C)(c2ccc(Br)cc2)N1)C(C)(C)C (single isomer, unassigned) [Example 101.2]	> 200 µM	41.6 µM	–
CC(=O)N[C@H](C(=O)N1C[C@H](O)CC1C1=NC(=O)C(C)(c2ccc(Br)cc2)N1)C(C)(C)C (single isomer, unassigned) [Example 101.3]	> 200 µM	332 µM	–
CC(=O)N[C@H](C(=O)N1C[C@H](O)CC1C1=NC(=O)C(C)(c2ccc(Br)cc2)N1)C(C)(C)C (single isomer, unassigned) [Example 101.4]	108 µM	26.7 µM	–
CC(=O)N[C@H](C(=O)N1C[C@H](O)CC1C1=NC(=O)C(C)(c2ccc(-c3scnc3C)cc2)N1)C(C)(C)C (single isomer, unassigned) [Example 102.1]	6.17 µM	1.96 µM	–
CC(=O)N[C@H](C(=O)N1C[C@H](O)CC1C1=NC(=O)C(C)(c2ccc(-c3scnc3C)cc2)N1)C(C)(C)C (single isomer, unassigned) [Example 102.2]	93.1 µM	43.8 µM	–
CC(=O)N[C@H](C(=O)N1C[C@H](O)CC1C1=NC(=O)C(C)(c2ccc(-c3scnc3C)cc2)N1)C(C)(C)C (single isomer, unassigned) [Example 102.3]	43.3 µM	10.7 µM	–
Cc1cc(C(C(=O)N2C[C@H](O)CC2C2=NC(=O)C(C)(c3ccc(Br)cc3)N2)C(C)C)on1 (single isomer, unassigned) [Example 103.1]	> 400 µM	> 150 µM	–
Cc1cc(C(C(=O)N2C[C@H](O)CC2C2=NC(=O)C(C)(c3ccc(Br)cc3)N2)C(C)C)on1 (single isomer, unassigned) [Example 103.2]	> 400 µM	> 150 µM	–
Cc1cc(C(C(=O)N2C[C@H](O)CC2C2=NC(=O)C(C)(c3ccc(Br)cc3)N2)C(C)C)on1 (single isomer, unassigned) [Example 103.3]	292 µM	> 150 µM	–
Cc1cc(C(C(=O)N2C[C@H](O)CC2C2=NC(=O)C(C)(c3ccc(Br)cc3)N2)C(C)C)on1 (single isomer, unassigned) [Example 103.4]	6.73 µM	1.09 µM	–
Cc1cc([C@H](C(=O)N2C[C@H](O)C[C@H]2C(=O)NCc2ccc(-c3scnc3C)cc2OCCNC(=O)c2ccc3c(c2)C(=O)OC32c3ccc(N(C)C)cc3Oc3cc(N(C)C)ccc32)C(C)C)on1 [VHL fluorescence polarization probe, (2S,4R)—N-(2-(2-(3′,6′-bis(dimethylamino)-3-oxo-3H-spiro[isobenzofuran-1,9′-xanthene]-5-carboxamido)ethoxy)-4-(4-methylthiazol-5-yl)benzyl)-4-hydroxy-1-((R)-3-methyl-2-(3-methylisoxazol-5-yl)butanoyl)pyrrolidine-2-carboxamide, reference compound]	–	–	0.0182 µM

The next lines start with the values.

IC50 (VHL Elongin B/C complex)	Kd [1]	Kd (VHL Elongin B/C complex; probe binding to VHL/Elongin B/C)	SMILES
203 µM	35.9 µM	–	Cc1cc(C(C(=O)N2C[C@H](O)CC2C2=NC(=O)C(C)(c3ccc(-c4scnc4C)cc3)N2)C(C)C)on1 (single isomer, unassigned) [Example 104.1]
> 400 µM	> 150 µM	–	Cc1cc(C(C(=O)N2C[C@H](O)CC2C2=NC(=O)C(C)(c3ccc(-c4scnc4C)cc3)N2)C(C)C)on1 (single isomer, unassigned) [Example 104.2]
230 µM	44.6 µM	–	Cc1cc(C(C(=O)N2C[C@H](O)CC2C2=NC(=O)C(C)(c3ccc(-c4scnc4C)cc3)N2)C(C)C)on1 (single isomer, unassigned) [Example 104.3]
0.422 µM	0.171 µM	–	Cc1cc(C(C(=O)N2C[C@H](O)CC2C2=NC(=O)C(C)(c3ccc(-c4scnc4C)cc3)N2)C(C)C)on1 (single isomer, unassigned) [Example 104.4]
375 µM	241 µM	–	Cc1cc(C(C(=O)N2C[C@H](O)CC2C2=NC(=O)C(C)(c3ccc(-c4cccnc4)cc3)N2)C(C)C)on1 (single isomer, unassigned) [Example 105.1]
136 µM	113 µM	–	Cc1cc(C(C(=O)N2C[C@H](O)CC2C2=NC(=O)C(C)(c3ccc(-c4cccnc4)cc3)N2)C(C)C)on1 (single isomer, unassigned) [Example 105.2]
> 400 µM	> 150 µM	–	Cc1cc(C(C(=O)N2C[C@H](O)CC2C2=NC(=O)C(C)(c3ccc(-c4cccnc4)cc3)N2)C(C)C)on1 (single isomer, unassigned) [Example 105.3]
5.39 µM	1.58 µM	–	Cc1cc(C(C(=O)N2C[C@H](O)CC2C2=NC(=O)C(C)(c3ccc(-c4cccnc4)cc3)N2)C(C)C)on1 (single isomer, unassigned) [Example 105.4]
> 400 µM	> 150 µM	–	Cc1cc(C(C(=O)N2C[C@H](O)CC2C2=NC(=O)C(C)(c3ccc(-c4cccnc4C)cc3)N2)C(C)C)on1 (single isomer, unassigned) [Example 106.1]
> 400 µM	> 150 µM	–	Cc1cc(C(C(=O)N2C[C@H](O)CC2C2=NC(=O)C(C)(c3ccc(-c4cccnc4C)cc3)N2)C(C)C)on1 (single isomer, unassigned) [Example 106.2]
> 400 µM	> 150 µM	–	Cc1cc(C(C(=O)N2C[C@H](O)CC2C2=NC(=O)C(C)(c3ccc(-c4cccnc4C)cc3)N2)C(C)C)on1 (single isomer, unassigned) [Example 106.3]
–	> 150 µM	–	Cc1cc(C(C(=O)N2C[C@H](O)CC2C2=NC(=O)C(C)(C)N2)C(C)C)on1 (single isomer, unassigned) [Example 107.1]
–	150 µM	–	Cc1ncsc1-c1ccc([C@]2(C)NC(C3C[C@@H](O)CN3C(=O)[C@@H]3CCCN3S(C)(=O)=O)=NC2=O)cc1 (single isomer, unassigned) [Example 112.2]
–	150 µM	–	Cc1ncsc1-c1ccc([C@]2(C)NC(C3C[C@@H](O)CN3C(=O)C(c3cc(O)no3)C(C)C)=NC2=O)cc1 (single isomer, unassigned) [Example 116.2]
–	150 µM	–	Cc1ncsc1-c1ccc([C@]2(C)NC(C3C[C@@H](O)CN3C(=O)C(c3cc(O)no3)C(C)C)=NC2=O)cc1 (single isomer, unassigned) [Example 116.3]
–	≥ 150 µM	–	Cc1ncsc1-c1ccc([C@]2(C)NC(C3C[C@@H](O)CN3C(=O)[C@H]3CCCN3S(C)(=O)=O)=NC2=O)cc1 (single isomer, unassigned) [Example 120.1]
–	≥ 150 µM	–	Cc1ncsc1-c1ccc([C@]2(C)NC(C3C[C@@H](O)CN3C(=O)[C@H]3CCCN3S(C)(=O)=O)=NC2=O)cc1 (single isomer, unassigned) [Example 120.2]
–	≥ 150 µM	–	CC(=O)N1CCC[C@H]1C(=O)N1C[C@H](O)CC1C1=NC(=O)[C@](C)(c2ccc(-c3scnc3C)cc2)N1 (single isomer, unassigned) [Example 121.2]
–	≥ 150 µM	–	Cc1cc([C@@H](C(=O)N2C[C@H](O)C[C@H]2C2=NOC(C)(c3ccccc3)N2)C(C)C)on1 (single isomer, unassigned) [Example 128.1]
–	≥ 150 µM	–	Cc1cc([C@@H](C(=O)N2C[C@H](O)C[C@H]2C2=NOC(C)(c3ccccc3)N2)C(C)C)on1 (single isomer, unassigned) [Example 128.2]
–	≥ 150 µM	–	Cc1cc([C@@H](C(=O)N2C[C@H](O)C[C@H]2C2=NOC(C)(C)N2)C(C)C)on1 [Example 126.2, (S)-1-((2S,4R)-2-(5,5-dimethyl-4,5-dihydro-1,2,4-oxadiazol-3-yl)-4-hydroxypyrrolidin-1-yl)-3-methyl-2-(3-methylisoxazol-5-yl)butan-1-one]
